In BindingDB's records for doi:10.1021/jm9604383 (Goethe-University Frankfurt, 2021):

Assays:
Adenosine receptor A3 [1] = molecular target: T1, Adenosine receptor A3 (Homo sapiens, UniProt P0DMS8); experiment: Displacement of [1251]AB-MEC from human A3 receptor assessed as inhibition constant
T1 sequence (P0DMS8 whole entry): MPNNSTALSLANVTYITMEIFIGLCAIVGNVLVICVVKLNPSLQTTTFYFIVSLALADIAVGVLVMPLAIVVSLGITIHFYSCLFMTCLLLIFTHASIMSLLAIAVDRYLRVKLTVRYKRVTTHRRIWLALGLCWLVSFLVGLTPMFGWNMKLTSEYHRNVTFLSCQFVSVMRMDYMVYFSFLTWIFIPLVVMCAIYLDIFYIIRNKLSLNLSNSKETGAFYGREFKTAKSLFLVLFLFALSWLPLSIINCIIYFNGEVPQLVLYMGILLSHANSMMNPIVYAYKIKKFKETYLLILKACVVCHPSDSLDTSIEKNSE

Adenosine receptor A3 [2] = molecular target: T1, Adenosine receptor A3; experiment: Binding affinity to human A3 adenosine receptor assessed as inhibition constant
Adenosine receptor A1 = molecular target: T2, Adenosine receptor A1 (Homo sapiens, UniProt P30542); experiment: Binding affinity to human A1 adenosine receptor assessed as inhibition constant
T2 sequence (P30542 whole entry): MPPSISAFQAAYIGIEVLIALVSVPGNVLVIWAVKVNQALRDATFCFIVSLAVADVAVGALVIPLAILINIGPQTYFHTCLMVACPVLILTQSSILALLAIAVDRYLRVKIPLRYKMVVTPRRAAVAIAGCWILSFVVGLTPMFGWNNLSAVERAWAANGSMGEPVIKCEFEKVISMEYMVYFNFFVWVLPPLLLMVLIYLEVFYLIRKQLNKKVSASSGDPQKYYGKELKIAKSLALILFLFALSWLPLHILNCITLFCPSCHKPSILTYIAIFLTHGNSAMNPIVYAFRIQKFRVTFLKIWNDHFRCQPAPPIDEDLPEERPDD

Adenosine receptor A2b [3] = molecular target: T3, Adenosine receptor A2b (Homo sapiens, UniProt P29275); experiment: Displacement of [3H]DPCPX to human A2B adenosine receptor derived from HEK cells assessed as inhibition constant
T3 sequence (P29275 whole entry): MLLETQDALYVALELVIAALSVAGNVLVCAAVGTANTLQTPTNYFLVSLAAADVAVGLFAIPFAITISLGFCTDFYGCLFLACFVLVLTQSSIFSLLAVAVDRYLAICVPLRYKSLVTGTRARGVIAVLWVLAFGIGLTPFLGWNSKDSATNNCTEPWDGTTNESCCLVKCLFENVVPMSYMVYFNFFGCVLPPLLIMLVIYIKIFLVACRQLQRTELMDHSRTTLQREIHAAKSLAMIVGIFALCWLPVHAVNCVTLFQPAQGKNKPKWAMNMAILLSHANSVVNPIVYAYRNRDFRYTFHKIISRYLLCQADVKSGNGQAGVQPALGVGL

Adenosine receptor A2b [4] = molecular target: T3, Adenosine receptor A2b; experiment: Inhibition of human A2b adenosine receptor
[5] = molecular target: T4, Palmitoleoyl-protein carboxylesterase NOTUM (Homo sapiens, UniProt Q6P988); experiment: Inhibition of human notum using OTPS as substrate incubated for 16 hrs by fluorescent based assay
T4 sequence (Q6P988 whole entry): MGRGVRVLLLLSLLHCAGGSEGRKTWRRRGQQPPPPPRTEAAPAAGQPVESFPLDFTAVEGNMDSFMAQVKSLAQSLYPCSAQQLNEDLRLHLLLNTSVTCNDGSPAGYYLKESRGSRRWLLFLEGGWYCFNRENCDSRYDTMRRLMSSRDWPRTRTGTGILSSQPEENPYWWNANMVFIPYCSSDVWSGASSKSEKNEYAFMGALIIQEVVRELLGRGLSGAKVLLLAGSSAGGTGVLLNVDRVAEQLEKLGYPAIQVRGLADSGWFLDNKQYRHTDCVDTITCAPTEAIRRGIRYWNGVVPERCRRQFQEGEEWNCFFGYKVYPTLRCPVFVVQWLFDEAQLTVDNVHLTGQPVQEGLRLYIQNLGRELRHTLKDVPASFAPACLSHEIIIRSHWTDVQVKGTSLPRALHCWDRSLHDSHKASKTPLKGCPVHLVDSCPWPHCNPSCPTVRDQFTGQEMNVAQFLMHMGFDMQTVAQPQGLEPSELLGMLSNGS

CCCCn1c(=O)c2c(ncn2[C@@H]2O[C@H](C(=O)NC)[C@@H](O)[C@H]2O)n(CCCC)c1=O [5-(1,3-Dibutyl-2,6-dioxo-1,2,3,6-tetrahydro-purin-7-yl)-3,4-dihydroxy-tetrahydro-furan-2-carboxylic acid methylamide] gave a Ki (Adenosine receptor A3 [1]) of 229 nM.
CC[C@@H]1Cn2c(c3nc(-c4cc(Cl)cc(Cl)c4Cl)nc-3n(C)c2=O)N1 gave a Ki (Adenosine receptor A3 [2]) of 0.433 nM.
CCCn1c(=O)c2nc(-c3ccc(OCC(N)=O)cc3O)[nH]c2n(CCC)c1=O showed a Ki (Adenosine receptor A1) of 6.5 nM.
Molecule CCCn1c(=O)[nH]c2nc(-c3cnn(Cc4noc(-c5ccc(Cl)cc5)n4)c3)[nH]c2c1=O [8-(1-((5-(4-chlorophenyl)-1,2,4-oxadiazol-3-yl)methyl)-1H-pyrazol-4-yl)-1-propyl-1H-purine-2,6(3H,7H)-dione] has a Ki (Adenosine receptor A2b [3]) of 5.5 nM.
For Cn1cnc2c1c(=O)[nH]c(=O)n2C [theobromine], the IC50 (Adenosine receptor A2b [4]) was 130 µM.
Work on Cn1c(=O)c2c(ncn2C)n(C)c1=O yielded an IC50 [5] of 19 µM.
With CCCn1c(=O)c2nc(-c3ccc(S(=O)(=O)NCCN(C)C)cc3)[nH]c2n(CCC)c1=O the Ki (Adenosine receptor A1) was 6.5 nM.
CCCn1c(=O)c2nc(C3CC4CC3C3OC43)[nH]c2n(CCC)c1=O (stereo not drawn) [8-(3-Oxa-tricyclo[3.2.1.0*2,4*]oct-6-yl)-1,3-dipropyl-3,7-dihydro-purine-2,6-dione] gave a Ki (Adenosine receptor A1) of 0.95 nM.
